Read-outs that look alike come from different tables or passages of the source.
Legend:
[1] = tested on: indigenous stool microflora; assay: DGGE of PCR-amplified bacterial ribosomal RNA genes from stool (Example 3); assay type: in vivo, mice; settings: oral ramoplanin 100 μg/mL in drinking water
[2] = tested on: VRE; assay: Multiple dose study in asymptomatic carriers of gastro-intestinal VRE (Example 7.2); assay type: in vivo, human; settings: for patients with no detectable VRE: p<0.01; for patients who remained VRE free: Day 14 (seven days after cessation)
Method: Patients were assessed by rectal swab on Days 7, 14, and 21 to determine the presence or absence of VRE. […] All VRE isolates were tested for susceptibility to ramoplanin.

[3] = tested on: E. faecium; settings: 10 strains; cited from earlier work
[4] = tested on: facultative and aerobic gram-negative bacilli; assay: Effect on indigenous stool microflora (Example 3), quantitative culture; assay type: in vivo, mice
[5] = tested on: total anaerobes; assay: Effect on indigenous stool microflora (Example 3), quantitative culture; assay type: in vivo, mice; settings: 100 μg/mL in drinking water, seven days
[6] = tested on: Bacteroides species; assay: as above; assay type: in vivo, mice; settings: 100 μg/mL in drinking water, seven days
[7] = tested on: K. pneumoniae P62; assay: Establishment of colonization during ramoplanin treatment (Example 6); assay type: in vivo, mice; settings: inoculated on day 2 of a 6-day course, 100 μg/ml in drinking water
Method: (§1) Quantification of Stool Pathogens: Fresh stool specimens were processed as described by Donskey et al. (supra). In order to quantify VRE, K. pneumoniae, and C. glabrata, diluted samples were plated onto Enterococcosel agar containing vancomycin 20 μg/mL, MacConkey agar containing ceftazidime 10 μg/mL, or Sabouraud Dextrose Agar (Becton, Dickinson, and Company, Sparks, Md.) containing piperacillin/tazobactam 16 μg/mL and linezolid 8 μg/mL, respectively. The plates were incubated in room air at 37° C. far 24 or 48 hours, and the number of colony-forming units (CFU) of each pathogen per gram of sample was calculated.
The density of the pathogens in stool was monitored every 3-4 days. Four mice were included in each treatment group.

[8] = tested on: Enterococcus species; assay: Effect on indigenous stool microflora (Example 3), quantitative culture; assay type: in vivo, mice
[9] = tested on: Total Enterococci; assay: VRE suppression in a mouse model (Example 1), total enterococci in faeces; assay type: in vivo, mice
Text: Mice were colonized with a clinical isolate VanA strain of E. faecium (VRE) isolated from a septicemic patient. A single inoculation of 5×10^8 cfu VRE by oral gavage (Day 0) was followed by treatment with vancomycin in the drinking water to maintain colonization. On day 22, each group received the same vancomycin-containing drinking water. […] The control group consisted of five mice, while the ramoplanin group consisted of four mice.

[10] = tested on: VRE C68; assay: Eradication of VRE stool colonization in mice (Example 2); assay type: in vivo
Method: as §1
High-density VRE stool colonization was established in mice by administering subcutaneous clindamycin (1.4 mg) once each day for 2 days before and 7 days after orogastric inoculation of 10^6 colony-forming units (CFU) of VRE C68 using a stainless steel feeding tube (Perfektum, Popper & Sons, New Hyde Park, N.Y.). […] Six mice were included in each treatment group.
To evaluate the possibility that ramoplanin-treated mice were being re-exposed to VRE from their environment, broth-enrichment cultures for VRE were performed as previously described Ray et al. (JAMA 287: 1400-1401, 2002) after contacting cage bottoms and tops, water bottles, and food with pre-moistened cotton-tipped swabs.

[11] = day 8 of 100 μg/ml drinking water, 8 mice

Ramoplanin
stool DGGE patterns, mean similarity indices in comparison to the pre-treatment patterns [1]: 72%
patients with no detectable VRE ([2]; Day 7, 100 mg BID for seven days, 17 of 21 patients): 81.0%
patients with no detectable VRE ([2]; Day 7, 400 mg BID for seven days, 18 of 20 patients): 90.0%
patients who remained VRE free ([2]; 100 mg BID, 6 of 21 patients): 28.6%
patients who remained VRE free ([2]; 400 mg BID, 7 of 17 patients): 41.2%
number of VRE-free patients ([2]; Day 21): comparable among all treatment groups
Ramoplanin MIC90 [3]: 0.5 µg/mL
mean density of total facultative and aerobic gram-negative bacilli in stool ([4]; 3 days after discontinuation (day 10)): not significantly different from baseline
mean density of total facultative and aerobic gram-negative bacilli in stool ([4]; day 7 of treatment, P<0.05): increased significantly
ramoplanin in stool (100 μg/ml dose, 3 days after discontinuation (day 10)): no ramoplanin was detectable
concentration in stool, range (100 μg/ml dose, day 7 of treatment, n=5 mice): 156 to 312.5 µg/g
concentration in stool, range (300 μg/ml dose, day 7, n=5 mice): 300 to 320 µg/g
mean density of total anaerobes in stool [5]: not significantly affected
mean density of Bacteroides species in stool [6]: not significantly affected
overgrowth of K. pneumoniae P62 in stool [7]: facilitated overgrowth
Enterococcus species in stool ([8]; at least 11 days after discontinuation (day 18)): remained significantly reduced
Enterococcus species in stool ([8]; ramoplanin treatment, P<0.001): significantly reduced
Enterococci: Total Enterococci ([9]; Day 22, prior to ramoplanin therapy): 9.8 log 10 cfu/g faeces
Enterococci: Total Enterococci ([9]; Day 29, completion of ramoplanin therapy): <2.4 log 10 cfu/g faeces
Enterococci: Total Enterococci ([9]; Day 36, 7 days after completion of ramoplanin therapy): 8.6 log 10 cfu/g faeces
mice that developed a recurrence of colonization after discontinuing treatment ([10]; 100 μg/ml in drinking water): One hundred
mice that developed a detectable recurrence of colonization after discontinuing treatment ([10]; 500 μg/ml in drinking water): 50%
levels of VRE in stool during treatment ([10]; 100 or 500 μg/ml in drinking water, 8 days, P<0.0001 vs controls): undetectable levels
mice with VRE detectable in sections of the cecal lining [10, 11]: 25%
mice with negative stool and cecal content cultures for VRE [10, 11]: 100%
level of VRE in sections of the cecal lining ([10]; the 2 positive mice, day 8 of 100 μg/ml drinking water): 2-3 log10 CFU/g

Source: patent US20100113334A1, “METHODS FOR REDUCING OR PREVENTING TRANSMISSION OF NOSOCOMIAL PATHOGENS IN A HEALTH CARE FACILITY” (priority 2003, published 2010)
